The test system of one data set is Caco-2 monolayer. The data set is described as follows: Caco-2 Permeability Assay. Type of data set: in vitro ADME, human. The essentials:
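Caco-2 monolayers cultured 21 days (TEER >600 […]); test article at 10 μM in HBSS/HEPES pH 7.4 transport medium, dosed apical or basolateral, ±Pgp inhibitor. Incubated 90 min at 37 °C; both compartments quantified by LC-MS/MS. Papp (A→B, B→A), efflux ratio and % recovery calculated.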
Background: Caco-2 cells form a polarised layer with tight junctions and transporters.

The nature of data set [1]: Stability in Simulated Intestinal Fluid (SIF). In kind it is in vitro ADME. More on the design: key: % parent compound remaining relative to 0-minute sample. The essentials: (§1)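 Stability was tested at 37° C in pepsin-supplemented gastric fluid, pH 1.2, and pancreatin-supplemented intestinal fluid, pH 6.8, using 2 μg/mL final compound over 0–60 minutes. Remaining parent was quantified by LC-MS/MS and expressed as a percentage of time zero.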

The next data set can be described thus: Plasma Stability. Type of data set: in vitro ADME, human. The essentials:
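Compounds incubated at 1 μM in fresh human plasma for 1 hour at 37° C, then protein-precipitated with acetonitrile/formic acid containing internal standard. Remaining parent measured by LC-MS/MS in triplicate, expressed as percent of control remaining.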

The nature of data set [2]: Stability in Simulated Gastric Fluid (SGF). In kind it is in vitro ADME. Set-up: key: % parent compound remaining relative to 0-minute sample. The method in brief:
as §1

[3] abbreviates: simulated intestinal fluid, remaining at 1 h.
The mark [4] stands for this setting: simulated gastric fluid, remaining at 1 h.
The mark [5] stands for this setting: % remaining after 1 h in simulated intestinal fluid.
Where [6] appears, read: % remaining after 1 h in human plasma.
The mark [7] stands for this setting: % remaining after 1 h in simulated gastric fluid.

Some results are limits rather than exact numbers.

`CC(C)OCCn1c(SCOC(=O)N(C)CCOCCNC(=O)[C@H](N)C(C)C)nc(=O)c2[nH]ccc21.O=C(O)C(F)(F)F` [Example 391, trifluoroacetic acid ({4-oxo-1-[2-(propan-2-yloxy)ethyl]-1H,4H,5H-pyrrolo[3,2-d]pyrimidin-2-yl}sulfanyl) methyl N-(2-{2-[(2R)-2-amino-3-methylbutanamido]ethoxy}ethyl)-N-methylcarbamate]: the “Caco-2 Papp” value in the data set with Caco-2 monolayer (Caco-2 monolayer) is 3.65 ×10⁻⁶ cm/s. Moreover, the SIF in data set [1] (setting [3]) is 70% remaining. The “human Plasma stability” value in “Plasma Stability” (human plasma, remaining at 1 h) turned out to be 1% remaining. In addition, the SGF in data set [2] (setting [4]) is 96% remaining.

As for `CC(C)OCCn1c(=S)n(COC(=O)OCCOCCOC(N)=O)c(=O)c2[nH]ccc21` [Example 403, 3-{[{{2-[2-(carbamoyloxy)ethoxy]ethoxy}car-bonyl)oxy]methyl}-1-[2-(propan-2-yloxy)ethyl]-2-sulfanylidene-1H,2H,3H,4H,5H-pyrrolo[3,2-d]pyrimidin-4-one], the “Caco-2 Papp” value with Caco-2 monolayer (Caco-2 monolayer) was 0.477 ×10⁻⁶ cm/s. Further, in data set [1] (setting [5]), the SIF is on record as 54% remaining. Besides, in “Plasma Stability” (setting [6]), the “human Plasma stability” value came to 0% remaining. Also, the SGF in data set [2] (setting [7]) is recorded as 98% remaining.

With “(2R)-2-amino-4-(methylsulfanyl)-N-[2-(2-{[{{4-oxo-1-[2-(propan-2-yloxy)ethyl]-2-sulfanylidene-1H,2H,3H,4H,5H-pyrrolo[3,2-d]pyrimidin-5-yl}methoxy)carbonyl]oxy}ethoxy)eth-yl]butanamide; trifluoroacetic acid [Example 390]”, the “Caco-2 Papp” value with Caco-2 monolayer (Caco-2 monolayer) was found to be 0.49 ×10⁻⁶ cm/s. Moreover, in data set [1] (setting [3]), the SIF was 64% remaining. Moreover, the “human Plasma stability” value in the data set “Plasma Stability” (human plasma, remaining at 1 h) was found to be 0% remaining. In data set [2] (setting [4]), the SGF is reported as 100% remaining.

In the case of “(2R)-2-amino-4-methyl-N-[2-(2-{[{{4-oxo-1-[2-(propan-2-yloxy)ethyl]-2-sulfanylidene-1H,2H,3H,4H,5H-pyrrolo[3,2-d]pyrimidin-5-yl}methoxy)carbonyl]oxy}ethoxy)eth-yl]pentanamide; trifluoroacetic acid [Example 386]”, in the data set on Caco-2 monolayer (Caco-2 monolayer), the “Caco-2 Papp” value stood at 0.077 ×10⁻⁶ cm/s. Besides, the SIF in data set [1] (setting [3]) is recorded as 86% remaining. For the same compound, in the data set “Plasma Stability” (human plasma, remaining at 1 h), the “human Plasma stability” value turned out to be 23% remaining. The SGF in data set [2] (setting [4]) is recorded as 93% remaining.

Consider “(2R)-2-amino-N-[2-(2-{[{{4-oxo-1-[2-(propan-2-yloxy)ethyl]-2-sulfanylidene-1H,2H,3H,4H,5H-pyrrolo[3,2-d]pyrimidin-5-yl}methoxy)carbonyl]oxy}ethoxy)eth-yl]-3-phenylpropanamide; trifluoroacetic acid [Example 388]”, for which the “Caco-2 Papp” value in the data set on Caco-2 monolayer (Caco-2 monolayer) is less than 1.99 ×10⁻⁶ cm/s. Moreover, the SIF in data set [1] (setting [3]) was 73% remaining. In “Plasma Stability” (human plasma, remaining at 1 h), the “human Plasma stability” value is listed as 1% remaining. The SGF in data set [2] (setting [4]) is recorded as 97% remaining.

As to “(2R)-2-{[(tert-butoxy)carbonyl]amino}-4-methyl-N-[2-(2-{[{{4-oxo-1-[2-(propan-2-yloxy)ethyl]-2-sulfanylidene-1H,2H,3H,4H,5H-pyrrolo[3,2-d]pyrimidin-5-yl}methoxy)carbonyl]oxy}ethoxy)eth-yl]pentanamide [Example 385]”, the “Caco-2 Papp” value in the data set on Caco-2 monolayer (Caco-2 monolayer) stood at 3.87 ×10⁻⁶ cm/s. Moreover, the SIF in data set [1] (setting [3]) was 84% remaining. Further, in “Plasma Stability” (human plasma, remaining at 1 h), the “human Plasma stability” value was 1% remaining. Moreover, the SGF in data set [2] (setting [4]) is reported as 94% remaining.

In the case of “(2R)-2-{[(tert-butoxy)carbonyl]amino}-N-[2-(2-{[{{4-oxo-1-[2-(propan-2-yloxy)ethyl]-2-sulfanylidene-1H,2H,3H,4H,5H-pyrrolo[3,2-d]pyrimidin-5-yl}methoxy)carbonyl]oxy}ethoxy)eth-yl]-3-phenylpropanamide [Example 387]”, the “Caco-2 Papp” value in the data set with Caco-2 monolayer (Caco-2 monolayer) worked out at 4.5 ×10⁻⁶ cm/s. In data set [1] (setting [3]), the SIF is on record as 75% remaining. The “human Plasma stability” value in the data set “Plasma Stability” (human plasma, remaining at 1 h) was 1% remaining. In addition, the SGF in data set [2] (setting [4]) is on record as 92% remaining.

Turning to “bis (trifluoroacetic acid) 5-{[2-({[(5-{[(2S)-2-amino-4-methylpentanoyl]oxy}penta-noyl)oxy]methyl}sulfanyl)-4-oxo-1-[2-(propan-2-yloxy)ethyl]-1H,4H,5H-pyrrolo[3,2-d]pyrimidin-5-yl]methoxy}-5-oxopentyl (2S)-2-amino-4-methylpentanoate [Example 346]”, the “Caco-2 Papp” value with Caco-2 monolayer (Caco-2) is less than 0.0623 ×10⁻⁶ cm/s. In addition, in data set [1] (% remaining @ 1 h), the SIF is given as 7% remaining. The “human Plasma stability” value in the data set “Plasma Stability” (% remaining @ 1 h) is reported as 98% remaining. Also, the SGF in data set [2] (% remaining @ 1 h) is given as 97% remaining.

“tert-butyl 3-(2-{[{{4-oxo-1-[2-(propan-2-yloxy)ethyl]-2-sulfanylidene-1H,2H,3H,4H,5H-pyrrolo[3,2-d]pyrimidin-5-yl}methoxy)carbonyl]oxy}eth-oxy)propanoate [Example 392]”: in the data set with Caco-2 monolayer (Caco-2 monolayer), the “Caco-2 Papp” value came out at 0.12 ×10⁻⁶ cm/s. The SIF in data set [1] (setting [3]) is listed as 71% remaining. Also, the “human Plasma stability” value in the data set “Plasma Stability” (human plasma, remaining at 1 h) was 1% remaining. Besides, the SGF in data set [2] (setting [4]) is 95% remaining.

Turning to “tert-butyl N-[2-(2-{[(1-{4-oxo-1-[2-(propan-2-yloxy)ethyl]-2-sulfanylidene-1H,2H,3H,4H,5H-pyrrolo[3,2-d]pyrimidin-5-yl}ethoxy)carbonyl]amino}eth-oxy)ethyl]carbamate [Example 375]”, in the data set on Caco-2 monolayer (Caco-2 monolayer), the “Caco-2 Papp” value was less than 0.175 ×10⁻⁶ cm/s. In addition, the SIF in data set [1] (setting [3]) is on record as 99% remaining. In “Plasma Stability” (human plasma, remaining at 1 h), the “human Plasma stability” value is given as 99% remaining. The SGF in data set [2] (setting [4]) is given as 89% remaining.

With “tert-butyl N-[2-(2-{[{{4-oxo-1-[2-(propan-2-yloxy)ethyl]-2-sulfanylidene-1H,2H,3H,4H,5H-pyrrolo[3,2-d]pyrimidin-5-yl}methoxy)carbonyl]amino}ethoxy) ethyl]carbamate [Example 372]”, in the data set on Caco-2 monolayer (Caco-2 monolayer), the “Caco-2 Papp” value is 11.7 ×10⁻⁶ cm/s. For the same compound, the SIF in data set [1] (setting [3]) was 60% remaining. Besides, in the data set “Plasma Stability” (human plasma, remaining at 1 h), the “human Plasma stability” value came out at 0% remaining. For the same compound, the SGF in data set [2] (setting [4]) is 85% remaining.

With “trifluoroacetic acid ({4-oxo-1-[2-(propan-2-yloxy)ethyl]-1H,4H,5H-pyrrolo[3,2-d]pyrimidin-2-yl}sulfanyl)methyl N-[2-(2-aminoethoxy)ethyl]carbamate [Example 374]”, the “Caco-2 Papp” value with Caco-2 monolayer (Caco-2 monolayer) is 9.06 ×10⁻⁶ cm/s. Also, the SIF in data set [1] (setting [3]) is listed as 94% remaining. For the same compound, the “human Plasma stability” value in the data set “Plasma Stability” (human plasma, remaining at 1 h) is on record as 82% remaining. Further, the SGF in data set [2] (setting [4]) is reported as 75% remaining.

As for “trifluoroacetic acid {4-oxo-1-[2-(propan-2-yloxy)ethyl]-2-sulfanylidene-1H,2H,3H,4H,5H-pyrrolo[3,2-d]pyrimidin-5-yl}methyl (2R)-1-[2-(2-aminoacetamido)acetyl]pyrrolidine-2-carboxylate [Example 406]”, in the data set with Caco-2 monolayer (Caco-2 monolayer), the “Caco-2 Papp” value was 3.42 ×10⁻⁶ cm/s. For the same compound, the SIF in data set [1] (setting [5]) was 71% remaining. The “human Plasma stability” value in “Plasma Stability” (setting [6]) was 0% remaining. Also, in data set [2] (setting [7]), the SGF was 88% remaining.

Take “trifluoroacetic acid {4-oxo-1-[2-(propan-2-yloxy)ethyl]-2-sulfanylidene-1H,2H,3H,4H,5H-pyrrolo[3,2-d]pyrimidin-5-yl}methyl N-[2-(2-aminoethoxy)ethyl]carbamate [Example 373]”: in the data set with Caco-2 monolayer (Caco-2 monolayer), the “Caco-2 Papp” value amounted to 0.123 ×10⁻⁶ cm/s. In addition, the SIF in data set [1] (setting [3]) is on record as 72% remaining. For the same compound, the “human Plasma stability” value in “Plasma Stability” (human plasma, remaining at 1 h) is 68% remaining. Further, the SGF in data set [2] (setting [4]) was 90% remaining.

With “{4-oxo-1-[2-(propan-2-yloxy)ethyl]-2-sulfanylidene-1H,2H,3H,4H,5H-pyrrolo [3,2-d]pyrimidin-5-yl}methyl 2-[(2S)-2-(benzoyloxy)-N,3-dimethylbutanamido]acetate [Example 401]”, the “Caco-2 Papp” value in the data set on Caco-2 monolayer (Caco-2 monolayer) was determined as 0.43 ×10⁻⁶ cm/s. For the same compound, the SIF in data set [1] (setting [5]) was 8% remaining. The “human Plasma stability” value in the data set “Plasma Stability” (setting [6]) is 0% remaining. In addition, the SGF in data set [2] (setting [7]) is reported as 90% remaining.

As for “{4-oxo-1-[2-(propan-2-yloxy)ethyl]-2-sulfanylidene-1H,2H,3H,4H,5H-pyrrolo[3,2-d]pyrimidin-5-yl}methyl 2-[2-(2-{[(tert-butoxy)carbonyl]amino}acetamido)-N-methylacetamido]acetate [Example 407]”, the “Caco-2 Papp” value with Caco-2 monolayer (Caco-2 monolayer) is 14.6 ×10⁻⁶ cm/s. In addition, the SIF in data set [1] (setting [5]) is given as 1% remaining. For the same compound, the “human Plasma stability” value in the data set “Plasma Stability” (setting [6]) is reported as 0% remaining. The SGF in data set [2] (setting [7]) is reported as 98% remaining.

On to “{4-oxo-1-[2-(propan-2-yloxy)ethyl]-2-sulfanylidene-1H,2H,3H,4H,5H-pyrrolo[3,2-d]pyrimidin-5-yl}methyl 2-[2-(acetyloxy)-N-methylacetamido]acetate [Example 400]”, for which, in the data set with Caco-2 monolayer (Caco-2 monolayer), the “Caco-2 Papp” value was 0.242 ×10⁻⁶ cm/s. Besides, the SIF in data set [1] (setting [5]) is 26% remaining. Besides, the “human Plasma stability” value in “Plasma Stability” (setting [6]) is recorded as 89% remaining. The SGF in data set [2] (setting [7]) is on record as 99% remaining.

Turning to “{4-oxo-1-[2-(propan-2-yloxy)ethyl]-2-sulfanylidene-1H,2H,3H,4H,5H-pyrrolo[3,2-d]pyrimidin-5-yl}methyl 2-{[(tert-butoxy)carbonyl](methyl)amino}acetate [Example 395]”, the “Caco-2 Papp” value with Caco-2 monolayer (Caco-2 monolayer) worked out at 14.4 ×10⁻⁶ cm/s. Further, the SIF in data set [1] (setting [5]) is 23% remaining. The “human Plasma stability” value in “Plasma Stability” (setting [6]) worked out at 1% remaining. The SGF in data set [2] (setting [7]) was 97% remaining.

Values taken from patent US20240067651A1 (Biohaven Therapeutics Ltd., priority 2019, published 2024).
